In US11952360B2, “Dibenzothiophene compounds” (Saint Louis University, priority 2019, dated 2024):

Key:
HeLa cells [1] = assay: Fluorescence imaging of HeLa cells with CellMask Orange co-stain (colocalization); assay type: cell-based; details: for cellular localization: HeLa cells co-stained with CellMask Orange, 10 minutes; for Pearson correlation coefficient with CellMask Orange: HeLa cells, 10 minutes incubation, single cell image, DAPI vs Cy-5 filter sets
Procedure: (§1) All images were captured with a Leica DM 400 B microscope with a DFC3000G camera (Leica Microsystems, Germany) and 63× oil immersion or 40× lenses. HeLa cells were staged according to the aforementioned methods. Leica LASX Core Software (Leica Microsystems, Germany) was used to acquire the images. All images were processed using ImageJ. The Pearson correlation coefficient was calculated using the image of a single cell using an ImageJ plugin called Colocalization Finder by Christophe Laummonerie and Jerome Mutterer of Institut de Biologie Moleculaire des Plantes.
To further optimize staining and understand the localization of the dyes in HeLa cells, a co-stain was introduced to the cells with the dyes while also utilizing a shorter incubation time. Sterile glass poly-D-lysine coated #1.5 cover slips (NeuVitro), pre-incubated with culture medium, were placed in sterile 6-well plates. A single cell suspension of the HeLa (cervical cancer cells) cell line was prepared at 5×10^4 cells ml-1 in the appropriate medium. Volumes of 2.0 mL were pipetted into each of the wells containing the coverslips. The 6-well plate was left overnight at 37.0° C. in a 5.0% CO2 incubator. Following the overnight incubation, the plate was aspirated and PBS, containing the CellMask Orange (ThermoFischer Scientific) (at 1000× dilution with 0.10% DMSO) in a volume of 1.8 mL, was gently pipetted onto the cell monolayers attached to the glass cover slips. To the CellMask doped PBS 200 μl of 4 or 9 at 50 μM was added to the respective well. Cells on the cover slips were exposed to the dye for approximately 10 minutes. Cells were washed with PBS and treated with 4.0% paraformaldehyde solution prepared in PBS, incubated for 30 minutes at room temperature for full fixation. Three washes with 1 ml of PBS were completed to ensure excess solution was rinsed away. Glass cover slips were removed and mounted on slides with ProLong Gold Antifade Mountant (ThermoFisher Scientific). The specimen was dried for several minutes and sealed with clear nail polish before visualized under a microscope.
The modest modification came in two parts; the PBS used to replace the media was now doped with a 1000× dilution of CellMask Orange (plasma membrane dye) and the incubation time for the co-stain and dyes was shortened to 10 minutes. These subtle modifications were done to determine if the dyes, 4 and 9, could be used with short incubation periods and to follow the manufacture's staining instructions for CellMask Orange. […] CellMask Orange is a known dye which readily localizes in the plasma membrane. […] The overlap was quantified using a Pearson correlation coefficient calculation with the Colocalization Finder plugin for ImageJ using a single cell image cropped from the images. […]

HeLa cells [2] = assay: Fluorescence imaging of HeLa cells without co-stain; assay type: cell-based; details: 5.0 uM dye, approximately 2 hours, no co-stain
Procedure: as §1
Sterile glass poly-D-lysine coated #1.5 cover slips (NeuVitro), pre-incubated with culture medium, were placed in sterile 6-well plates. A single cell suspension of the HeLa (cervical cancer cell) cell line was prepared at 5×10^4 cells mL^−1 in the appropriate medium. Volumes of 2.0 mL were pipetted into each of the wells containing the coverslips. The 6-well plate was left overnight at 37.0° C. in a 5.0% CO2 incubator. Following the overnight incubation, the plate was aspirated dry and then PBS, containing the drug (at 5.0 uM and 0.10% DMSO) in a volume of 2.0 mL, was gently pipetted onto the cell monolayers attached to the glass cover slips. Cells on the cover slips were exposed to the dye for approximately 2 hours in the incubator at 37.0° C. in a 5.0% CO2. […]

[3] = UV/visible absorbance spectra in acetonitrile; assay type: physicochemical; details: for molar absorptivity: 0.01 mM solutions in HPLC grade acetonitrile; for λabs (absorbance maxima): Measured in CAN
Procedure: (§2) All chemicals were obtained from Alfa Aesar, Oakwood Chemical, Ark Pharm, ThermoFisher Scientific, and Sigma-Aldrich. They were used without further purification. Flash chromatography was performed using a Biotage Horizon with silica gel (SiliaFlash P60) purchased from SiliCycle. ^1H and ^13C NMR spectra were gathered on a Bruker DRX-400 in either DMSO-d6 or CDCl3. High-resolution mass spectra were measured using a ThermoScientific Q Exactive Orbitrap equipped with a Nano ESI ionization source. Absorption spectra were recorded using a Shimazdu UV-1800 UV-Vis spectrophotometer using samples contained in 10×10 mm quartz cell at a concentration of 0.01 mM. Fluorescence spectra were gathered on a Shuimazdu RF-5301 PC in a 10×10 mm quartz cuvette.
(§3) The two dyes, upon their successful synthesis and isolation, had their photophysical data gathered beginning with absorbance, which was measured through the visible and ultraviolet region. Absorbance spectra were gathered using 0.01 mM solutions of the respective compound in HPLC grade acetonitrile. The spectra are nearly identical. This was of no surprise as the chromophore is the same on both molecules; however, 9 has a more substantial absorbance than 4 with a respective molar absorptivity of 66,000 M^−1cm^−1 and 51,700 M^−1 cm^−1. The absorbance determination was followed by the fluorescence emission and excitation spectra being gathered using solutions where the absorbance of the respective compound was 0.041 at 250 nm in acetonitrile (FIG. 1). This was done to save material as the same solutions were then used to determine the fluorescent quantum yield. The excitation spectra of 4 and 9 followed the same pattern, though the two were slightly offset from one another when overlaid with respect to the x-axis.

[4] = Fluorescence excitation/emission spectra and fluorescent quantum yield (single point method, naphthalene standard); assay type: physicochemical; details: for λex (excitation maxima): Measured in CAN; for λem (emission maxima) / φ (fluorescent quantum yield, single point method): Measured in CAN (acetonitrile); for φ (fluorescent quantum yield, single point method): naphthalene standard, absorbance 0.041 at 250 nm
Procedure: as §2, §3
The fluorescent quantum yield was then determined by the single point method with Eq. 1.
Naphthalene was used as the standard where it was also made into a solution with acetonitrile at a concentration which allowed the absorbance to be 0.041 at 250 nm. The fluorescent quantum yields of 4 and 9 were determined to be 0.40 and 0.67, respectively.

HeLa cells [5] = assay: Metabolic proliferation (MTS) assay, toxicity in HeLa cells; assay type: cell-based
Procedure: HeLa cells were cultured in RPMI (ThermoFisher) supplemented with 10% FBS (ThermoFisher) and 1% penicillin-streptomycin (ThermoFisher 10000 U/mL). Cells (5000 cells/well in 100 μL) were plated in a 96-well culture plate (Greiner) and incubated for […]. Fifty microliters of the compound dissolved in complete media (final DMSO concentration 1%) at final concentrations of 100 μM, 10 μM, 1 μM, 100 nM, 10 nM, and 1 nM were added to the appropriate wells. After incubation of the cells at 37° C. in a humidified atmosphere of 5% CO2 for 120 h, the cells were stained and incubated with MTS reagent (Promega) for 2 h to determine cell viability. The absorbance of each well was taken at 490 nm using a multimode plate reader (FlexStation 3, Molecular Devices, San Diego, Calif.). GraphPad Prism was used to analyze data to determine the percent viability. […] Quadruplicate measurements were performed for each compound.
The toxicity of 4 and 9 was determined in HeLa cells. The HeLa cells were treated with concentrations of the respective dye varying between 1 nm and 100 μM for 72 hours.

[6] = 100 μM, 72 hours (FIG. 4: 120 h)
[7] = concentrations needed for standard imaging protocols (range 1 nm to 100 μM), 72 hours

log εmax (maximum molar extinction coefficient) [3] [M^−1 cm^−1]	molar absorptivity [3]	λabs (absorbance maxima) [3] [nm]	Stokes Shift [4] [nm]	λex (excitation maxima) [4] [nm]	λem (emission maxima) [4] [nm]	φ (fluorescent quantum yield, single point method) [4]	SMILES	cellular localization (HeLa cells [1])	Pearson correlation coefficient with CellMask Orange (HeLa cells [1])	distribution of emission in the cell (HeLa cells [2])	toxicity (HeLa cells [5]; [6])	toxicity (HeLa cells [5]; [7])
3.71	51,700 M^−1cm^−1	244	38	244	359	0.4	O=C(O)CCCc1ccc2c(c1)-c1ccccc1S2(=O)=O [Compound 4, 4-(5,5-dioxidodibenzo[b,d]thiophen-2-yl)butanoic acid]	localize in the plasma membrane	0.66	stronger emission from the center of the cell	display toxicity	neither dye displayed toxicity
3.81	66,000 M^−1cm^−1	247	38	248	357	0.67	CCCCCCCCc1ccc2c(c1)-c1cc(CCCC(=O)O)ccc1S2(=O)=O [Compound 9, 4-(8-octyl-5,5-dioxidodibenzo[b,d]thiophen-2-yl)butanoic acid]	localize in the plasma membrane	0.81	more extranuclear emission	display toxicity	neither dye displayed toxicity
